Data published in ChEMBL document CHEMBL1201862, “PubChem BioAssay data set” (2004).
Active and inactive are the calls of the source. Rule as the data show it, for most assays here: actives have a measured IC50 and inactives only a lower limit.

What was measured:
[1] = molecular target: Scavenger receptor class B member 1 (Mus musculus, UniProt Q61009); assay: mouse SR-BI DiI-HDL uptake blockers – ldlA[mSR-BI] cells, fluorescence, cherry pick, dose response (AID 493194); type: functional, cell-based;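 also: cellular uptake of fluorescent DiI-labeled HDL measured as cell fluorescence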
Sequence of Scavenger receptor class B member 1 (Q61009 whole entry): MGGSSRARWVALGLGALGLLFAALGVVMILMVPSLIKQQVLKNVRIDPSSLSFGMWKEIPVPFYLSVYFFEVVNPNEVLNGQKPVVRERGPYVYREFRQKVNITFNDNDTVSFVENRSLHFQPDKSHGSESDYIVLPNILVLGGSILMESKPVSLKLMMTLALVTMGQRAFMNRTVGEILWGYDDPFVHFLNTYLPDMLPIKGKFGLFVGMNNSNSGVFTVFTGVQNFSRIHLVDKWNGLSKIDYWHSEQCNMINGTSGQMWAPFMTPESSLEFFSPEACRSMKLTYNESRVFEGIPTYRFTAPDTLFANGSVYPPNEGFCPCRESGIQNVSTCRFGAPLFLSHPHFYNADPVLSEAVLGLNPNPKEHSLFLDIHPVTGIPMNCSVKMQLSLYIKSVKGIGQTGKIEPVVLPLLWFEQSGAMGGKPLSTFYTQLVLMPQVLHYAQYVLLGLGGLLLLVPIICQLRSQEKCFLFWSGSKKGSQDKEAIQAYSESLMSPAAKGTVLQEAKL

[2] = molecular target: T1, Dual specificity protein phosphatase 3 (Homo sapiens, UniProt P51452); assay: SAR VHR1 absorbance Assay for In Vitro dose response studies. [Related pubchem assays (depositor defined):AID1654, AID1661, AID1878, AID1992, AID2004]
T1 sequence (P51452 whole entry): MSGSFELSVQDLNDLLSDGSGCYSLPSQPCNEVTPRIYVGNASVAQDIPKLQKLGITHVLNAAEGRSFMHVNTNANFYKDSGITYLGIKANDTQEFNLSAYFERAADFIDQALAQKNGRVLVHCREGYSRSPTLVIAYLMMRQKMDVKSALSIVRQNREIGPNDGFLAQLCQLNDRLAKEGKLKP

[3] = molecular target: T2, Dual specificity protein phosphatase 6 (Rattus norvegicus, UniProt Q64346); type: functional;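 also: confirmatory in vitro dose-response testing of MKP-3 inhibition; recombinant His-tagged MKP-3 made in E. coli BL21 with OMFP substrate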
T2 sequence (Q64346 whole entry): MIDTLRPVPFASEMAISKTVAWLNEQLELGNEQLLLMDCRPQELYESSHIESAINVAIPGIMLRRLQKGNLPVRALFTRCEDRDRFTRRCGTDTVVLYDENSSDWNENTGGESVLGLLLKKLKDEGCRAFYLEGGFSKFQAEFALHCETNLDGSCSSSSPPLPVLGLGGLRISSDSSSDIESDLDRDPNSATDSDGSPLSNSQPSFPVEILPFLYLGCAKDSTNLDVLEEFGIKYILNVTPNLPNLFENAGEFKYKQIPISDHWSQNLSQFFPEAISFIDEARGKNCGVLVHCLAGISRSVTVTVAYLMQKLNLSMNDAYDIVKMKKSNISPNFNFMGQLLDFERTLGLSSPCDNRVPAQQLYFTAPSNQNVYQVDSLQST

[4] = molecular target: T3, Tyrosine-protein phosphatase non-receptor type 7 (Homo sapiens, UniProt P35236); assay: redox-active compounds inhibiting HePTP phosphatase – biochemical, fluorescence, mechanism study (AID 2068); type: functional
T3 sequence (P35236 whole entry): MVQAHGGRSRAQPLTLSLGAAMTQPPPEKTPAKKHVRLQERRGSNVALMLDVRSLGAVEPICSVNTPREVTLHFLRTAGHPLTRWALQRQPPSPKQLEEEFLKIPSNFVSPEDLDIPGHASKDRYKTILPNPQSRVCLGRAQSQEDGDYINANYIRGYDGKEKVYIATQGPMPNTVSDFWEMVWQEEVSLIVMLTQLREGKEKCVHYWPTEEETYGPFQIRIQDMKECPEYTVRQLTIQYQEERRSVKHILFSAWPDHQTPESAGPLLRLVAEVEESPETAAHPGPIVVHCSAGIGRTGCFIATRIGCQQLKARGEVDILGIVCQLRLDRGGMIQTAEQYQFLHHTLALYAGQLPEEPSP

[5] = molecular target: T1, Dual specificity protein phosphatase 3; assay: SAR VHR1 Fluorescent Assay for In Vitro dose response studies. [Related pubchem assays (depositor defined):AID1654, AID1661, AID1878, AID1992, AID2004, AID2070, AID2085]; type: functional
[6] = molecular target: T4, Voltage-gated N-type calcium channel alpha-1B subunit/Amyloid beta A4 precursor protein-binding family A member 1 (Homo sapiens, UniProt Q00975+Q02410); assay: disruptors of Mint-PDZ/N-type channel peptide interaction – biochemical, HTRF, SAR follow-up (AID 2489); type: functional
T4 sequence (Q00975 whole entry): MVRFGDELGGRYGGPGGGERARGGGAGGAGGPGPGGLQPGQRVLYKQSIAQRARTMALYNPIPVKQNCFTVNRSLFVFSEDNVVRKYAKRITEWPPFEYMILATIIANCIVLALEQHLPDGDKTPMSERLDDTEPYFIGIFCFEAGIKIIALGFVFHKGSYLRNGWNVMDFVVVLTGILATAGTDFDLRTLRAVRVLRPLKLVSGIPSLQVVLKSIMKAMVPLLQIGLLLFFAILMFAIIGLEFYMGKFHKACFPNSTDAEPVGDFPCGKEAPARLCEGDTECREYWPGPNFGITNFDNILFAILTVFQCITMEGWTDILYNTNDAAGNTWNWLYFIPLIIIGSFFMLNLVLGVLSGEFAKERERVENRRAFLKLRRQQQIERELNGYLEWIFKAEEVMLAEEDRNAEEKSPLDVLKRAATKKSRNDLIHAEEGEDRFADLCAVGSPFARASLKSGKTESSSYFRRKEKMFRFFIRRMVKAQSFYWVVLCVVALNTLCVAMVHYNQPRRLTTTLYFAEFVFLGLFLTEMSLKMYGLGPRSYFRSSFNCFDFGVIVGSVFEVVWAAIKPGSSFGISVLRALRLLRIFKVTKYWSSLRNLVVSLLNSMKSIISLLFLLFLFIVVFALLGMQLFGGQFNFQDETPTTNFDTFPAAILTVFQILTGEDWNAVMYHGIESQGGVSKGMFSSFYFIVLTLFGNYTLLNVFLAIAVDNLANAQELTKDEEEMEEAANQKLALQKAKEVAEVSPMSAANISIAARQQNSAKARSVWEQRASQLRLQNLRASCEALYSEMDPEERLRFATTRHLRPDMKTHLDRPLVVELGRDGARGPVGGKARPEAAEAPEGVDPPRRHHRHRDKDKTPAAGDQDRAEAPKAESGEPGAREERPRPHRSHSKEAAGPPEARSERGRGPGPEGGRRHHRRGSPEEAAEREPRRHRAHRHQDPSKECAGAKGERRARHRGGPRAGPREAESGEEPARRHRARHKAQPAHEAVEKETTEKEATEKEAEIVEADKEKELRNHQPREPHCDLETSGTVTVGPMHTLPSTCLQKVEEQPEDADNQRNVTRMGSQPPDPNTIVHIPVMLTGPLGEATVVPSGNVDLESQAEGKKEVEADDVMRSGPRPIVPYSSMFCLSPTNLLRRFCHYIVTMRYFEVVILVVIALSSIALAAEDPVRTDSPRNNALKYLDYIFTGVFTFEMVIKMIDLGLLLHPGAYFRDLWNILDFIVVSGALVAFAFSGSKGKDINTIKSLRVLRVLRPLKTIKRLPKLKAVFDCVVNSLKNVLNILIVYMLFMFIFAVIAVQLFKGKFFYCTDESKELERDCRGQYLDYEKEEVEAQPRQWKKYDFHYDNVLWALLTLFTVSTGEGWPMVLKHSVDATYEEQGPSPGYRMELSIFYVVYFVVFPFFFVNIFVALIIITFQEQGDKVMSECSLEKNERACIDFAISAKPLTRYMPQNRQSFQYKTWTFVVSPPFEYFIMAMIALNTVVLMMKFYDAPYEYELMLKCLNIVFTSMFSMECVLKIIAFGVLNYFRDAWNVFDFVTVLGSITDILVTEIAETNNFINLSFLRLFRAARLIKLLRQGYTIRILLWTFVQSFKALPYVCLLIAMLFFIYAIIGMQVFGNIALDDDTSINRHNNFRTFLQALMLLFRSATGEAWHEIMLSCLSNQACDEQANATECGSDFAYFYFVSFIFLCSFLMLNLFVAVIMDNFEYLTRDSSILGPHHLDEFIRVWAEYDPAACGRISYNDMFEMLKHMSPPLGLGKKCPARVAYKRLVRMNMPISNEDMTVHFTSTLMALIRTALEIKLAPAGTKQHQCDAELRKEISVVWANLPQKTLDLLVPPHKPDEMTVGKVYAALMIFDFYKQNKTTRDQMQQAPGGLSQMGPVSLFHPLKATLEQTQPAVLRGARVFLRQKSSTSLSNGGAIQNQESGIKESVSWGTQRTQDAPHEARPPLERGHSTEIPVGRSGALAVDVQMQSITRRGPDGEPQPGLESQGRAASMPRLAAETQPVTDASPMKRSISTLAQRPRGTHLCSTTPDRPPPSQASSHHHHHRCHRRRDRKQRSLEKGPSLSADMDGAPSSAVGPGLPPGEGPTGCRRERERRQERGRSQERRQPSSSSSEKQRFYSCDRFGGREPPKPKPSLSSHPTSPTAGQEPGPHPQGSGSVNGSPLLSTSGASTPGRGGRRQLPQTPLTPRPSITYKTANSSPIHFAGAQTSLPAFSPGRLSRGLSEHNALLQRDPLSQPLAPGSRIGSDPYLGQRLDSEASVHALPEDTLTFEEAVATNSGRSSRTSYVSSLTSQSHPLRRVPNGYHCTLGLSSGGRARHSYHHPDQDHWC
T4 sequence (Q02410 whole entry): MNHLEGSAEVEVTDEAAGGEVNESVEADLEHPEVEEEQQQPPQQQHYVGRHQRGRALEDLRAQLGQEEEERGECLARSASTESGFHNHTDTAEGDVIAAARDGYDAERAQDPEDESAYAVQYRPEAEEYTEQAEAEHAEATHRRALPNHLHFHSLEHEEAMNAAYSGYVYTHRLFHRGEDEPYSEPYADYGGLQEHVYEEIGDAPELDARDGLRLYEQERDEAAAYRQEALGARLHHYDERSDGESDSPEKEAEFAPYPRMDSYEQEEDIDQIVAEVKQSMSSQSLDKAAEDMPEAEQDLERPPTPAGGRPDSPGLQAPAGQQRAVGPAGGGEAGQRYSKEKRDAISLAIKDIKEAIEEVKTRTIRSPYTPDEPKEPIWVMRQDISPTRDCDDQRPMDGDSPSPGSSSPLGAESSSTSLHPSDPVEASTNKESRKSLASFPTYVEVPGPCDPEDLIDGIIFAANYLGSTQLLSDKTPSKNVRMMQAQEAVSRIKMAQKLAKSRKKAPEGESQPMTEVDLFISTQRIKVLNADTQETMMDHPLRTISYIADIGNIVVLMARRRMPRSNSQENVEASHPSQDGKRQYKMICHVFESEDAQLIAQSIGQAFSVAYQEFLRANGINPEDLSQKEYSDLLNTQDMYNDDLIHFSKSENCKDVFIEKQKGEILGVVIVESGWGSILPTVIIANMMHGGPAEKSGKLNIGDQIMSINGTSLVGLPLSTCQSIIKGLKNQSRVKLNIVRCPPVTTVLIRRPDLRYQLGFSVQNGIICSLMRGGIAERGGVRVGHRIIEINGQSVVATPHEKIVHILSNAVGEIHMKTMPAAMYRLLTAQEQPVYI

[7] = molecular target: T4, Voltage-gated N-type calcium channel alpha-1B subunit/Amyloid beta A4 precursor protein-binding family A member 1; assay: disruptors of Mint-PDZ/N-type channel peptide interaction – biochemical, HTRF, set 2, SAR follow-up (AID 434980); type: functional

`COC(=O)c1cn(C(=O)c2cccc3ccccc23)c2ccccc12` was tested, and the AC50 [1] was 25.1 µM (active).

For `CNC(=O)c1cn(CCOc2ccccc2)c2ccccc12`, the IC50 [2] was > 100 µM (inactive), the IC50 [3] was > 100 µM (inactive) and the IC50 [4] was 86.8 µM (active). The IC50 [5] was > 100 µM (inactive).

For `O=C(NCCc1ccccc1)c1cc(-c2ccco2)nc2ccccc12`, the IC50 [6] was > 56.8 µM (inactive) and the IC50 [7] was > 56.8 µM (inactive).
